This is an account of results in PubChem BioAssay (NCI).

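1) Cells in 96-well plates. 2) Compound, 48 h, 5 concentrations. 3) Linear interpolation between surrounding doses. 4) Unreached endpoint = highest concentration. GI50: concentration for 50% inhibition of growth. TGI: total growth inhibition.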

Test systems include HOP-62 NSCLC; 786-0 renal; UACC-257 melanoma; UACC-62 melanoma; HCT-15 colon; MOLT-4 leukemia; SF-268 CNS; SK-MEL-5 melanoma; KM12 colon.
Common to all, as to experiment: NCI tumour cell line growth inhibition, 48 h

Regarding `Cc1cc(N(CCC#N)CCC#N)ccc1/C=C/C(=O)Nc1ccccc1Cl`, the TGI in the assay with HOP-62 NSCLC, in the assay with 786-0 renal, with UACC-257 melanoma, in the assay on UACC-62 melanoma, in the assay on HCT-15 colon and in the assay on MOLT-4 leukemia was more than 100 µM in each case. The TGI in the assay with SF-268 CNS, in the assay with SK-MEL-5 melanoma and in the assay on KM12 colon was more than 100 µM in each case.

On to `O=C(O)C(CS)N=Cc1nc(-c2ccccc2)oc1O` (stereo unspecified), for which the TGI in the assay with HOP-62 NSCLC, in the assay with 786-0 renal, in the assay with UACC-257 melanoma, in the assay on UACC-62 melanoma, in the assay with HCT-15 colon and in the assay with MOLT-4 leukemia was more than 100 µM in each case. The TGI in the assay on SF-268 CNS and in the assay with SK-MEL-5 melanoma was more than 100 µM in each case.

For `COc1cc2c3c(c1OC)/C(=N/OS(=O)(=O)c1ccc(C)cc1)CC3N(S(=O)(=O)c1ccc(C)cc1)CC2` (stereo unspecified), the TGI with HOP-62 NSCLC, with 786-0 renal, in the assay with UACC-257 melanoma, in the assay with UACC-62 melanoma, in the assay with SF-268 CNS and in the assay on SK-MEL-5 melanoma was more than 100 µM throughout. This molecule displayed a TGI in the assay with KM12 colon of more than 100 µM.

As for `C1=CC=C2NCCSCCNC3=CC=CC=CC3=NCCSCCN=C2C=C1`, the TGI in the assay on HOP-62 NSCLC, in the assay on 786-0 renal, in the assay with UACC-257 melanoma, with UACC-62 melanoma, in the assay on HCT-15 colon and in the assay with MOLT-4 leukemia was more than 100 µM each time. Besides, the TGI with SF-268 CNS, in the assay on SK-MEL-5 melanoma and in the assay with KM12 colon was more than 100 µM in each case.

For `C(/C=C/N1CCCC1)=C\c1nc(N2CCCC2)c2ccccc2n1`, the TGI in the assay on HOP-62 NSCLC was 35.2 µM; in the assay on 786-0 renal, 30.4 µM; in the assay on UACC-257 melanoma, more than 100 µM; in the assay on UACC-62 melanoma, 44.1 µM; in the assay on HCT-15 colon, 32.5 µM; in the assay on MOLT-4 leukemia it was 52.3 µM. In addition, the TGI in the assay with SF-268 CNS is 41.7 µM; with SK-MEL-5 melanoma it was 33.3 µM; in the assay with KM12 colon, more than 100 µM.

Regarding `O=C(NOC(=O)c1ccc([N+](=O)[O-])cc1)c1ccc(Cl)cc1`, the TGI in the assay on HOP-62 NSCLC, in the assay on 786-0 renal, in the assay with UACC-257 melanoma, in the assay on UACC-62 melanoma, with HCT-15 colon and in the assay on MOLT-4 leukemia was more than 100 µM in each case. In addition, the TGI with SF-268 CNS, in the assay with SK-MEL-5 melanoma and in the assay on KM12 colon was more than 100 µM throughout.

Regarding `COc1ccc(-c2conc2-c2ccccc2)cc1`, the GI50 in the assay with HOP-62 NSCLC is 0.43 µM; in the assay with 786-0 renal it was 1.28 µM; in the assay on UACC-257 melanoma, 18.3 µM; with UACC-62 melanoma it was 0.689 µM; with HCT-15 colon, 0.099 µM; with MOLT-4 leukemia it was 0.706 µM. For the same molecule, the values for the GI50 with SF-268 CNS, with SK-MEL-5 melanoma and with KM12 colon were 1.67 µM, 0.441 µM and 0.108 µM, respectively. For the same molecule, the TGI was more than 100 µM in the assay with HOP-62 NSCLC; 53 µM in the assay on 786-0 renal; more than 100 µM with UACC-257 melanoma; more than 100 µM in the assay on UACC-62 melanoma; more than 100 µM in the assay on HCT-15 colon; more than 100 µM with MOLT-4 leukemia. Further, the figures for the TGI with SF-268 CNS, in the assay on SK-MEL-5 melanoma and with KM12 colon were more than 100 µM, 4.47 µM and 11 µM, respectively.

As to `C/C(=N\O)[C@H]1CC[C@@]2(C)[C@@H]3CC[C@H]4C(C)(C)/C(=N/O)CC[C@@]45CC35CC[C@]12C` (stereo partly specified), the GI50 is 4.3 µM in the assay on HOP-62 NSCLC; 2.97 µM in the assay on 786-0 renal; 5.53 µM in the assay with UACC-257 melanoma; 5.44 µM in the assay on UACC-62 melanoma; 3.75 µM with HCT-15 colon; 3.26 µM in the assay with MOLT-4 leukemia. Also, the GI50 in the assay with SF-268 CNS was 4.16 µM; in the assay with SK-MEL-5 melanoma, 1.51 µM; in the assay on KM12 colon, 2.84 µM. The TGI with HOP-62 NSCLC was more than 16.7 µM; in the assay with 786-0 renal, 6.85 µM; with UACC-257 melanoma, 10.1 µM; in the assay with UACC-62 melanoma, more than 16.7 µM; in the assay on HCT-15 colon, 10.5 µM; in the assay on MOLT-4 leukemia it was more than 16.7 µM. The TGI in the assay on SF-268 CNS was found to be 14.1 µM; with SK-MEL-5 melanoma, 7.59 µM; in the assay on KM12 colon it was 7.03 µM.

In the case of `C=C1c2ccccc2N(S(=O)(=O)c2ccc(C)cc2)C12CCCCC2`, the TGI in the assay on HOP-62 NSCLC, in the assay with 786-0 renal, in the assay with UACC-257 melanoma, in the assay with UACC-62 melanoma, in the assay on HCT-15 colon and in the assay on MOLT-4 leukemia was more than 100 µM in each case. In addition, the TGI in the assay on SF-268 CNS, with SK-MEL-5 melanoma and in the assay with KM12 colon was more than 100 µM in each case.

`O=C1OC(c2ccc(Cl)c3ccccc23)c2ccccc21` (stereo unspecified): the TGI in the assay with HOP-62 NSCLC, in the assay on 786-0 renal, in the assay with UACC-257 melanoma, with UACC-62 melanoma, with HCT-15 colon and with MOLT-4 leukemia was more than 100 µM throughout. For the same molecule, the TGI in the assay with SF-268 CNS, with SK-MEL-5 melanoma and in the assay on KM12 colon was more than 100 µM throughout.

Consider `O=C1[C@H]2ON(c3ccccc3)C(c3cccc([N+](=O)[O-])c3)[C@H]2C(=O)N1c1ccc(Cc2ccc(N3C(=O)[C@@H]4ON(c5ccccc5)C(c5cccc([N+](=O)[O-])c5)[C@@H]4C3=O)cc2)cc1` (stereo partly specified), for which the TGI with HOP-62 NSCLC, in the assay with 786-0 renal, with UACC-257 melanoma, in the assay with UACC-62 melanoma, in the assay with HCT-15 colon and in the assay with MOLT-4 leukemia was more than 100 µM throughout. Further, the TGI with SF-268 CNS, in the assay with SK-MEL-5 melanoma and in the assay with KM12 colon was more than 100 µM in each case.

Consider `C=C(C[N+](C)(C)C)N/N=C/c1oc(-c2ccc(OC)c(OC)c2)c(-c2ccc(OC)c(OC)c2)c1[N+](=O)[O-]`, for which the TGI stood at 32.9 µM in the assay with 786-0 renal; 46.6 µM in the assay on UACC-257 melanoma; 36.8 µM in the assay on HCT-15 colon; 83.6 µM with MOLT-4 leukemia; 38.7 µM with SF-268 CNS; 31.7 µM in the assay on SK-MEL-5 melanoma. In the assay with KM12 colon, this molecule came in with a TGI of 31.5 µM.

On to `CC12O[Te]34OC1(C)C(C)(O3)C2(C)O4`, for which the TGI in the assay on HOP-62 NSCLC came out at 36.8 µM; in the assay with 786-0 renal it was 29.3 µM; with UACC-257 melanoma, 33.6 µM; in the assay with UACC-62 melanoma it was 87.5 µM; in the assay with HCT-15 colon, 54 µM; in the assay with MOLT-4 leukemia it was 34.6 µM. Further, the TGI in the assay on SF-268 CNS stood at 23.9 µM; in the assay with KM12 colon, 27.4 µM.

Turning to `CC(C)(C)c1cc(C(=O)O)c(C(c2ccccc2)c2ccccc2C(=O)O)c(C(=O)O)c1` (stereo unspecified), the TGI in the assay with HOP-62 NSCLC, in the assay with 786-0 renal, with UACC-257 melanoma, in the assay with UACC-62 melanoma, with HCT-15 colon and in the assay with MOLT-4 leukemia was more than 100 µM throughout. The TGI with SF-268 CNS and in the assay on KM12 colon was more than 100 µM each time.

On to `C=CCN(N=O)C(=O)ON1C(=O)CCC1=O`, for which the TGI in the assay with HOP-62 NSCLC, with 786-0 renal, in the assay with UACC-257 melanoma, in the assay with UACC-62 melanoma, in the assay with HCT-15 colon and in the assay on MOLT-4 leukemia was more than 100 µM throughout. Further, the TGI in the assay on SF-268 CNS and in the assay on KM12 colon was more than 100 µM throughout.

With `BrC(Br)([P+](c1ccccc1)(c1ccccc1)c1ccccc1)[P+](c1ccccc1)(c1ccccc1)c1ccccc1`, the TGI in the assay on HOP-62 NSCLC is more than 100 µM; with 786-0 renal it was 26.9 µM; in the assay with UACC-257 melanoma it was 50.5 µM; in the assay with UACC-62 melanoma, 29.8 µM; in the assay with HCT-15 colon, 98.2 µM; in the assay with MOLT-4 leukemia it was 61.8 µM. Moreover, the TGI in the assay with SF-268 CNS is more than 100 µM; in the assay with SK-MEL-5 melanoma, 32.2 µM.

Take `CCCCOP1(=O)C=CC(Cl)=C(C)C1` (stereo unspecified): the TGI with HOP-62 NSCLC was more than 100 µM; in the assay with 786-0 renal, 49.3 µM; with UACC-62 melanoma, 54.4 µM; in the assay with HCT-15 colon it was 32.8 µM; with MOLT-4 leukemia, 25.3 µM; in the assay on SF-268 CNS, 89.2 µM. In the assay with KM12 colon, this molecule registered a TGI of 46.6 µM.

As for `CCC1(Cl)C(=O)NC(=O)N(C2CC(O)C(CO)O2)C1N=[N+]=[N-]` (stereo unspecified), the TGI with HOP-62 NSCLC, in the assay on 786-0 renal, in the assay on UACC-257 melanoma, in the assay on UACC-62 melanoma, with MOLT-4 leukemia and with SF-268 CNS was more than 100 µM in each case. For the same molecule, in the assay on SK-MEL-5 melanoma, the TGI was more than 100 µM.

With `CC(=O)[O-].O=[N+]([O-])c1ccc([O-])c(C=NCCN=Cc2cc([N+](=O)[O-])ccc2[O-])c1.[Mn+3]`, the GI50 with 786-0 renal, in the assay with UACC-257 melanoma, with UACC-62 melanoma, in the assay with HCT-15 colon, in the assay with MOLT-4 leukemia and in the assay with SF-268 CNS was more than 100 µM throughout. Also, the GI50 in the assay with SK-MEL-5 melanoma and with KM12 colon was more than 100 µM each time. For the same molecule, the TGI in the assay on 786-0 renal, with UACC-257 melanoma, in the assay with UACC-62 melanoma, in the assay with HCT-15 colon, in the assay with MOLT-4 leukemia and in the assay on SF-268 CNS was more than 100 µM throughout. In addition, the TGI with SK-MEL-5 melanoma and with KM12 colon was more than 100 µM in each case.

`CC1(C)Oc2ccccc2N2O[C@@H]3C(=O)N(c4ccccc4)C(=O)[C@@H]3C21c1ccccc1` (stereo partly specified): the TGI in the assay on HOP-62 NSCLC was 31.5 µM; with 786-0 renal, 30.3 µM; in the assay on UACC-257 melanoma, 78.7 µM; in the assay with UACC-62 melanoma, 87.8 µM; in the assay on MOLT-4 leukemia, more than 100 µM; with SF-268 CNS, more than 100 µM. Also, the TGI was 44.3 µM in the assay with SK-MEL-5 melanoma and more than 100 µM with KM12 colon.
